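Cells were grown in 96-well plates and exposed to each compound for 48 hours at five concentrations; endpoints were interpolated linearly between bracketing concentrations, or set to the highest concentration if not reached. TGI denotes the concentration required for complete inhibition of growth.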
How the values were obtained:
Assay in all cases: NCI tumour cell line growth inhibition, 48 h
786-0 renal = system: 786-0 renal
A498 renal = system: A498 renal
A549 NSCLC = system: A549 NSCLC
ACHN renal = system: ACHN renal
BT-549 breast = system: BT-549 breast
CAKI-1 renal = system: CAKI-1 renal
CCRF-CEM leukemia = system: CCRF-CEM leukemia
COLO 205 colon = system: COLO 205 colon
DU-145 prostate = system: DU-145 prostate
EKVX NSCLC = system: EKVX NSCLC
HCC-2998 colon = system: HCC-2998 colon
HCT-116 colon = system: HCT-116 colon
HL-60(TB) leukemia = system: HL-60(TB) leukemia
HOP-62 NSCLC = system: HOP-62 NSCLC
HT29 colon = system: HT29 colon
IGROV1 ovarian = system: IGROV1 ovarian
K-562 leukemia = system: K-562 leukemia
KM12 colon = system: KM12 colon
M14 melanoma = system: M14 melanoma
MALME-3M melanoma = system: MALME-3M melanoma
MCF7 breast = system: MCF7 breast
MDA-MB-231 breast = system: MDA-MB-231 breast
MDA-MB-435 = system: MDA-MB-435
MDA-N = system: MDA-N
MOLT-4 leukemia = system: MOLT-4 leukemia
NCI-H460 lung = system: NCI-H460 lung
NCI/ADR-RES ovarian = system: NCI/ADR-RES ovarian
OVCAR-3 ovarian = system: OVCAR-3 ovarian
OVCAR-5 ovarian = system: OVCAR-5 ovarian
OVCAR-8 ovarian = system: OVCAR-8 ovarian
PC-3 prostate = system: PC-3 prostate
RPMI-8226 leukemia = system: RPMI-8226 leukemia
RXF 393 renal = system: RXF 393 renal
SF-268 CNS = system: SF-268 CNS
SF-295 CNS = system: SF-295 CNS
SF-539 CNS = system: SF-539 CNS
SK-MEL-2 melanoma = system: SK-MEL-2 melanoma
SK-MEL-28 melanoma = system: SK-MEL-28 melanoma
SK-MEL-5 melanoma = system: SK-MEL-5 melanoma
SK-OV-3 ovarian = system: SK-OV-3 ovarian
SN12C renal = system: SN12C renal
SNB-19 CNS = system: SNB-19 CNS
SNB-75 CNS = system: SNB-75 CNS
SW-620 colon = system: SW-620 colon
T-47D breast = system: T-47D breast
TK-10 renal = system: TK-10 renal
UACC-257 melanoma = system: UACC-257 melanoma
UACC-62 melanoma = system: UACC-62 melanoma
UO-31 renal = system: UO-31 renal

`CN(C)Cc1cc(/C=C/C(=O)c2ccc(Cl)c(Cl)c2)cc(CN(C)C)c1O` was tested, and the TGI (786-0 renal) was 21.3 µM, the TGI (A498 renal) was 32.4 µM and the TGI (A549 NSCLC) was 36.8 µM. For the same compound, the TGI (ACHN renal) was 25.4 µM, the TGI (BT-549 breast) was 22.2 µM and the TGI (CAKI-1 renal) was 21.1 µM. For the same compound, the TGI (CCRF-CEM leukemia) was 16.9 µM, the TGI (COLO 205 colon) was 32.5 µM and the TGI (DU-145 prostate) was 27.1 µM. The TGI (EKVX NSCLC) was 30.1 µM, the TGI (HCC-2998 colon) was 19.3 µM and the TGI (HCT-116 colon) was 26.1 µM. It also gave a TGI (HL-60(TB) leukemia) of over 100 µM, a TGI (HOP-62 NSCLC) of 38 µM and a TGI (HT29 colon) of 28.6 µM. It also gave a TGI (IGROV1 ovarian) of 25.3 µM, a TGI (K-562 leukemia) of 91.2 µM and a TGI (KM12 colon) of 26.3 µM. For the same compound, the TGI (M14 melanoma) was 33.3 µM, the TGI (MALME-3M melanoma) was 22.7 µM and the TGI (MCF7 breast) was 31.7 µM. For the same compound, the TGI (MDA-MB-231 breast) was 21.8 µM, the TGI (MDA-MB-435) was 23.3 µM and the TGI (MDA-N) was 29.8 µM. The TGI (MOLT-4 leukemia) was 32.3 µM, the TGI (NCI-H460 lung) was 22.7 µM and the TGI (NCI/ADR-RES ovarian) was 50.6 µM. The TGI (OVCAR-3 ovarian) was 23.8 µM, the TGI (OVCAR-5 ovarian) was 28.3 µM and the TGI (OVCAR-8 ovarian) was 32.8 µM. The TGI (PC-3 prostate) was 28.2 µM, the TGI (RPMI-8226 leukemia) was 36.8 µM and the TGI (RXF 393 renal) was 28.4 µM. The TGI (SF-268 CNS) was 23.7 µM, the TGI (SF-295 CNS) was 36.1 µM and the TGI (SF-539 CNS) was 20.3 µM. It also gave a TGI (SK-MEL-2 melanoma) of 31 µM, a TGI (SK-MEL-28 melanoma) of 26.9 µM and a TGI (SK-MEL-5 melanoma) of 28.1 µM. The TGI (SK-OV-3 ovarian) was 36.9 µM, the TGI (SN12C renal) was 30.2 µM and the TGI (SNB-19 CNS) was 32.5 µM. For the same compound, the TGI (SNB-75 CNS) was 21.1 µM, the TGI (SW-620 colon) was 30.1 µM and the TGI (T-47D breast) was 24.1 µM. The TGI (TK-10 renal) was 25.6 µM, the TGI (UACC-257 melanoma) was 25.8 µM and the TGI (UACC-62 melanoma) was 27.4 µM. For the same compound, the TGI (UO-31 renal) was 19.6 µM.

Reference: PubChem BioAssay (NCI)
